Results on nine substances are retold here after US20230113747A1, “IMMUNOGENIC PEPTIDES WITH AN OXIDOREDUCTASE MOTIF COMPRISING A MODIFIED CYSTEINE” (priority 2019, published 2023).

Ends that are not written are not given here.

The first experiment deals with two peptides with a FITC label covalently attached to each other via a disulfide bridge. Description: Reductase activity of the peptides, fluorescent assay (Tomazzolli et al.).
Conditions: not given
It counts as biochemical.
On to “N-Acetyl-CPYCVQYIKANSKFIGITEL [Peptide 7]”, for which the oxidoreductase activity result was “higher oxidoreductase activity than the control peptide”.

The same experiment, now with this note: compared with the control peptide without modified cysteine; DTT = 100% reducing activity, water = 0%.
As for “N-ethyl C-PYC GW YRSPFSRVV HLYR —NH2 [Peptide 24]”, the oxidoreductase activity entry is recorded as “no oxidoreductase activity”.
“N-methyl C-PYC GW YRSPFSRVV HLYR —NH2 [Peptide 23]”: the oxidoreductase activity entry is “equivalent activity as compared to the control peptide”.
The same measure, in the same setting: for “N-propionyl C-PYC GW YRSPFSRVV HLYR —NH2 [Peptide 25]” the value was “higher oxidoreductase activity than the control peptide”; for “N-acetyl C-HGC GW YRSPFSRVV HLYR —NH2 [Peptide 27]”, “higher activity than the control peptide”; for “N-Acetyl-CPYCSLQPLALEGSLQKRG (Ac-CPYCSLQPLALEGSLQKRG; not fully specified (C-terminus); printed as N-Acetyl-CPYCSLQPLALEGSLQKRG; cysteine pairing not given here) [Peptide 2]”, “higher oxidoreductase activity than the control peptide”.
“GW YRSPFSRVV HLYR CPY-C—NH-ethyl (GWYRSPFSRVVHLYRCPYC-NHEt; cysteine pairing not given here) [Peptide 30]”: the oxidoreductase activity result is recorded as “slightly higher oxidoreductase activity than the control peptide”.
On the same count and under the same terms, for “GWYRSPFSRVVHLYRCPYC-NH-methyl (GWYRSPFSRVVHLYRCPYC-NHMe; cysteine pairing not given here) [Peptide 29]” the value was “slightly higher oxidoreductase activity than the control peptide”; for “N-acetyl C-PYC GW YRSPFSRVV HLYR —NH2 [Peptide 22]”, “higher oxidoreductase activity than the control peptide”.
